Data taken from publication PMC5122590, “Identification of a Dolabellane Type Diterpene Synthase and other Root-Expressed Diterpene Synthases in Arabidopsis” (Frontiers in Plant Science, 2016).

What was measured:
[1] = target: T1, TPS6c (Arabidopsis thaliana, UniProt Q84UU9); experiment: E. coli coexpression with GGPP synthase, GC-MS; format: cell-based; conditions: product (3E,7E)-dolabella-3,7-dien-18-ol and an unknown diterpene
T1 construct: gene TPS06; N-terminal 53 aa removed; pET28a; expressed in E. coli with GGPP synthase
T1 sequence (Q84UU9 54-611): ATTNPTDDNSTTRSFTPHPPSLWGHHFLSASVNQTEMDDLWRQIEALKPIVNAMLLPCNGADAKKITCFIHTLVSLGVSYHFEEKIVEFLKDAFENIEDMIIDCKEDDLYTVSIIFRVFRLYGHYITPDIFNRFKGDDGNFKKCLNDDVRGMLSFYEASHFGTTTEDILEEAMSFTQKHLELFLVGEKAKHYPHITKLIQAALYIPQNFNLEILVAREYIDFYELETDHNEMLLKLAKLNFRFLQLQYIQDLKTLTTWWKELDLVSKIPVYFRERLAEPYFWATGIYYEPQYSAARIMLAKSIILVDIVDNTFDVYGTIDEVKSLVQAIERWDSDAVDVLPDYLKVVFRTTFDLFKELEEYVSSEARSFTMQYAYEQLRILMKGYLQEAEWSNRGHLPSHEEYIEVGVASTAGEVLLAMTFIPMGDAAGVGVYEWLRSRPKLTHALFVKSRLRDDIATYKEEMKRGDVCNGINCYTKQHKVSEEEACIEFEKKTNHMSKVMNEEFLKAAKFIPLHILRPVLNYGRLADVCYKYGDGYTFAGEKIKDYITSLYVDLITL

[2] = target: T2, TPS9 (Arabidopsis thaliana, UniProt Q8L7G4); experiment: E. coli coexpression with GGPP synthase, GC-MS; format: cell-based; conditions: unidentified diterpene olefins formed
T2 construct: gene TPS09; pET Duet; no truncation stated; RIKEN full-length cDNA clone; expressed in E. coli with prenyl diphosphate synthase
T2 sequence (Q8L7G4 1-607): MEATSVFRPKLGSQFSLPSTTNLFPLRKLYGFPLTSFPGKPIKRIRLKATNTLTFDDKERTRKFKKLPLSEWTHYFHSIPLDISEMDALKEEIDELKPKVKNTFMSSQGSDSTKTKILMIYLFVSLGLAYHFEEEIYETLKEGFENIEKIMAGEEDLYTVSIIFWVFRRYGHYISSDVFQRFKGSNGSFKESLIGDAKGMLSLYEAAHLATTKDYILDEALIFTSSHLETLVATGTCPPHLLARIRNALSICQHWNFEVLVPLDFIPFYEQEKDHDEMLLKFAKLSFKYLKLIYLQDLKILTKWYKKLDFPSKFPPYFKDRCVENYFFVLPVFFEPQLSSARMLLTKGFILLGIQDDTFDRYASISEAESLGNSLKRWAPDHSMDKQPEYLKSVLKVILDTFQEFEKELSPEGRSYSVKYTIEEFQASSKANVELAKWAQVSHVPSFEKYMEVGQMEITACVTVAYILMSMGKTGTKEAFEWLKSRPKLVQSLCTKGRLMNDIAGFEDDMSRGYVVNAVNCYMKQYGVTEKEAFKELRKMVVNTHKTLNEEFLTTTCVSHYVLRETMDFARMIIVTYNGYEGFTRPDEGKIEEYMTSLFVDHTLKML

[3] = target: T3, TPS30 (Arabidopsis thaliana, UniProt Q9LH31); experiment: E. coli coexpression with GGPP synthase, GC-MS; format: cell-based; conditions: two unknown diterpenes formed
T3 construct: N-terminal 48 aa removed; pET28a; expressed in E. coli with prenyl diphosphate synthase
T3 sequence (Q9LH31 49-604): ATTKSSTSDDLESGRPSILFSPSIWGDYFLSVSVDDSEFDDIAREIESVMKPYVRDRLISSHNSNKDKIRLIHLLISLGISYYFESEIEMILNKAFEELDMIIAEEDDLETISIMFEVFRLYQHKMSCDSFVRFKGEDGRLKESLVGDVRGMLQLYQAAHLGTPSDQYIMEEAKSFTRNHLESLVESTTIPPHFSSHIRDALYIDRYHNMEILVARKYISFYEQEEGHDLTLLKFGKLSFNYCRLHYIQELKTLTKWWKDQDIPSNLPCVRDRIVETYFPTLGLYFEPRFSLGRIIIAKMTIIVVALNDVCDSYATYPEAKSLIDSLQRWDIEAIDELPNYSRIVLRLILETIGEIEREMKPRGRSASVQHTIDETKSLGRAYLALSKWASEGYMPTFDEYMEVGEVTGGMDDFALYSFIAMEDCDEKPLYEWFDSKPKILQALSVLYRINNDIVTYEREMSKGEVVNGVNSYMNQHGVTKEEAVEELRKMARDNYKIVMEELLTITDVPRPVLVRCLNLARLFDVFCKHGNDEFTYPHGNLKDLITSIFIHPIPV

[4] = target: T4, TPS20c (Arabidopsis thaliana, UniProt Q9FI27); experiment: radiochemical terpene synthase assay; format: biochemical; conditions: labelled compound ([1-3H]-GGPP); six concentrations, triplicate
T4 construct: gene TPS20; first 53 aa (plastid transit peptide) removed; N-terminal His-tag (pET28a NdeI/XhoI); E. coli; partially purified
T4 sequence (Q9FI27 54-575): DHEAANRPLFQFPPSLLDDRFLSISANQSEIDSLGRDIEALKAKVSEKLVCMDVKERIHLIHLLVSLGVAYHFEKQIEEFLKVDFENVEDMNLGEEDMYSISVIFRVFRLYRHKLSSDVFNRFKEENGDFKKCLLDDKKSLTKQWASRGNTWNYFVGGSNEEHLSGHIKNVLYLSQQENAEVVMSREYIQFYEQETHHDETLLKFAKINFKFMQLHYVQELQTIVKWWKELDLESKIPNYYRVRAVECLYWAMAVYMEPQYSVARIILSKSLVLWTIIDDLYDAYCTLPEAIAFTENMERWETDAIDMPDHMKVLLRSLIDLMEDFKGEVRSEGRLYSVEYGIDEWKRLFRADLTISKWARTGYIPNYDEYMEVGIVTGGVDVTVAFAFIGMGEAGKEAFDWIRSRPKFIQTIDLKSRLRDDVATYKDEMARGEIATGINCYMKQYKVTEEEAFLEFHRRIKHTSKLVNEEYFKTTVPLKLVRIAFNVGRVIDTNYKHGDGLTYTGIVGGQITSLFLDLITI
Source text: radiochemical terpene synthase assay on TPS20c

[5] = target: T2, TPS9; experiment: E. coli coexpression with (E,E)-FPP synthase, GC-MS; format: cell-based; conditions: trace nerolidol and (E)-beta-farnesene formed
[6] = target: T5, TPS26 (Arabidopsis thaliana, UniProt Q9C8E3); experiment: as above; format: cell-based; conditions: trace alpha-humulene and (E)-beta-farnesene formed
T5 construct: N-terminal 38 aa removed; pET28a; RIKEN cDNA clone; expressed in E. coli with prenyl diphosphate synthase
T5 sequence (Q9C8E3 39-598): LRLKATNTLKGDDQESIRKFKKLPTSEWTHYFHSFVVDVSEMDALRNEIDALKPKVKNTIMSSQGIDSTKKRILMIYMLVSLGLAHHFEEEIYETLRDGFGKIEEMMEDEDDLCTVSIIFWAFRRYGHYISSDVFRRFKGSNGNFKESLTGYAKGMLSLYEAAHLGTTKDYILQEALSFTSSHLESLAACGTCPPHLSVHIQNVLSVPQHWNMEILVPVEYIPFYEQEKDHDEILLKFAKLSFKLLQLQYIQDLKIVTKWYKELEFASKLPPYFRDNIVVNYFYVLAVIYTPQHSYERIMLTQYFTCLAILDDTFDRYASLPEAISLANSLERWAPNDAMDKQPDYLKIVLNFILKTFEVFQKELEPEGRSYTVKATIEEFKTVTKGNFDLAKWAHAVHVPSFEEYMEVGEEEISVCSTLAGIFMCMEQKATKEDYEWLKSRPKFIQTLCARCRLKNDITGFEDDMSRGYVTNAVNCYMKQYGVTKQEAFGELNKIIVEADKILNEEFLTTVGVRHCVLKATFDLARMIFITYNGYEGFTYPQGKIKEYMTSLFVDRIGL

[7] = target: T6, TPS22 (Arabidopsis thaliana, UniProt Q9LQ27); experiment: in vitro assay, SPME-GC-MS; format: biochemical; conditions: main product (E)-beta-farnesene
T6 construct: N-terminal 41 aa (transit peptide) removed; TOPO-pET102; E. coli; partially purified
T6 sequence (Q9LQ27 42-603): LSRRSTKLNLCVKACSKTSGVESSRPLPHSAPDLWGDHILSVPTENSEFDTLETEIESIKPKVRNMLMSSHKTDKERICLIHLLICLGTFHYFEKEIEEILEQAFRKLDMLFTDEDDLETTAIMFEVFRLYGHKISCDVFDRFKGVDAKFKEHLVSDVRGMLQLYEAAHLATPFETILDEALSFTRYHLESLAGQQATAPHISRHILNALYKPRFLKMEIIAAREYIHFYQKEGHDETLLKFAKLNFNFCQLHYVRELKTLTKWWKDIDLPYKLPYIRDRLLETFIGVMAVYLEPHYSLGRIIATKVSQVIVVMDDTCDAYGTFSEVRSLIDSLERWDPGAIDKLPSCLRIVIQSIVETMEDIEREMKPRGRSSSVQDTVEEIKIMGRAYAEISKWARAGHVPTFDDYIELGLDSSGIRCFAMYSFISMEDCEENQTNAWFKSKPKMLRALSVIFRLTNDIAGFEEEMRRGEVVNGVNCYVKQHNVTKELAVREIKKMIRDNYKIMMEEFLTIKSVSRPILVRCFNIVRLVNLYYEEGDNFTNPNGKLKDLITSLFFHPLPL

[8] = target: T7, TPS25 (Arabidopsis thaliana, UniProt Q9LIA1); experiment: in vitro assay, SPME-GC-MS; format: biochemical; conditions: main product (E)-beta-farnesene
T7 construct: N-terminal 25 aa (transit peptide) removed; TOPO-pET102; E. coli; partially purified
T7 sequence (Q9LIA1 26-603): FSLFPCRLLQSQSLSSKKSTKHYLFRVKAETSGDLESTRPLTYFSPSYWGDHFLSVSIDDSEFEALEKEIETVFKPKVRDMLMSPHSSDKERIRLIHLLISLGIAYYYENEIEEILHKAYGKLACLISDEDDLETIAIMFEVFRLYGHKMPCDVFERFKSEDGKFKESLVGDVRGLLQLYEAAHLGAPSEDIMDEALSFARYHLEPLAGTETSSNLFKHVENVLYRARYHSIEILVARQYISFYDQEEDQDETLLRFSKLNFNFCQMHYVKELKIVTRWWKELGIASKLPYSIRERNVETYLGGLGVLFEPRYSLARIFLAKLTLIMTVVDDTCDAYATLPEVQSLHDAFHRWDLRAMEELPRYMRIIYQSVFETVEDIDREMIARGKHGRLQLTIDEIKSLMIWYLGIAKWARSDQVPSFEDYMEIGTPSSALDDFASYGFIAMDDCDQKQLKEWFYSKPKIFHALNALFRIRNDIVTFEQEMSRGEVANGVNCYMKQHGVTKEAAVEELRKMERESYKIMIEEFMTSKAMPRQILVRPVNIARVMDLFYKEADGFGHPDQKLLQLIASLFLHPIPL

Row | Km [4] | Structure (SMILES) | E. coli coexpression with GGPP synthase, GC-MS [1] | E. coli coexpression with GGPP synthase, GC-MS [2] | E. coli coexpression with GGPP synthase, GC-MS [3] | E. coli coexpression with (E,E)-FPP synthase, GC-MS [5] | E. coli coexpression with (E,E)-FPP synthase, GC-MS [6] | in vitro assay, SPME-GC-MS [7] | in vitro assay, SPME-GC-MS [8]
1 | 6.29 ± 0.24 µM | CC(C)=CCC/C(C)=C/CC/C(C)=C/CC/C(C)=C/COP(=O)(O)OP(=O)(O)O [GGPP] | TPS6c reacts with GGPP to produce dolabelladienol and an unknown diterpene | TPS9 converted GGPP to one predominant diterpene olefin and eight minor diterpene products | protein encoded by gene TPS30 reacted with GGPP to form two unknown diterpenes | – | – | – | –
2 | – | CC(C)=CCC/C(C)=C/CC/C(C)=C/COP(=O)(O)OP(=O)(O)O [(E,E)-FPP] | – | – | – | When co-expressed with (E,E)-FPP synthase, TPS9 produced trace amounts of nerolidol and (E)-β-farnesene | trace amounts of α-humulene and (E)-β-farnesene being produced by TPS26 | both proteins converted (E,E)-FPP into sesquiterpenes in vitro with (E)-β-farnesene as the main compound | both proteins converted (E,E)-FPP into sesquiterpenes in vitro with (E)-β-farnesene as the main compound
